Among the data in patent publication US20250154169A1, “COMPOUNDS AND METHODS FOR MODULATING SPLICING” (REMIX THERAPEUTICS INC., priority 2021, published 2025) are IC50 and AC50 values, retold here.

pIC50: −log10 of the molar value. Some results are limits rather than exact numbers.

One assay has as its system Target C. Description: Protein abundance, HiBit-assay system (Promega), Target C. Type of assay: cell-based, human. The conditions noted are these: Table 6; HiBiT-modified K562 cells, 24 hours. On the procedure:
Compounds described herein were used to screen for effects on quantitative protein abundance using a HiBit assay system (Promega). Quantitative protein abundance was determined by measuring the protein levels of HiBit-tagged protein targets expressed in cell culture via luminescence using the Nano-Glo HiBiT Lytic Detection System, which uses a split complementation assay format to reconstitute NanoBiT enzyme to generate a luminescent signal. A protein abundance assay was developed such that endogenous protein targets could be modified with the HiBiT peptide tag and their abundance could be assessed after compound treatment. Briefly, K562 cell lines containing a HiBiT-modification were treated with various compounds described herein (e.g., compounds of Formulas (I) or (II)). After treatment for 24 hours, the protein abundance of a specific target was determined by measuring luminescence.
Cells were maintained in EIDM with 10% FBS. Before the assay, cells were diluted with […] growth media (EIDM+1% FBS media) and were seeded in a 384-well plate at a density of 10000 cells/well (for each cell line listed in Table 5). Each compound was prepared as a 10-point 3-fold serial dilution in DMSO with the top dose at a final concentration of 10 μM in the well. Unmodified K562 cells were added at the previously specified density with DMSO to serve as an assay baseline and positive control (PC) and DMSO only with the respective modified cell lines was added to the negative control (NC) columns. Final DMSO concentration was kept at or below 0.25%. Treated cell plates were placed in an incubator at 37° C. with 5% CO2 for 24 hours. After 24 hours, 25 μL of Complete HiBit Lytic reagent was added to each well at room temperature (e.g. one plate requiring 10 mL Lytic Buffer, 100 μL LgBiT Protein, 200 μL Lytic Substrate), shaken for 5 minutes at 600 RPM, then left to sit for 10 minutes for signal to stabilize before reading on a Spark Cyto plate reader (Tecan) with a 500 ms measurement time.
To determine compound effects on protein abundance of each target in Table 6, the percent response for each respective cell line was calculated at each compound concentration as follows:
For the normalized response at each concentration, a four-parameter logistical regression was fit to the data and the response was interpolated at the 50% value to determine a concentration for protein abundance at […] the untreated control.

The test system of another assay is HTT mRNA. Description: Splicing RT-qPCR assay, HTT canonical (CJ) and alternative (AJ) junction mRNA. Type of assay: cell-based, human. The note with it: Homo sapiens, A673 or K562 cells, 24 hours compound treatment; for pIC50: 24 h, read-out: HTT CJ (IC50, decrease in canonical junction mRNA); for AC50: read-out: HTT AJ (AC50, increase in alternative junction mRNA). The gist of the method: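 One-step RT-qPCR on cell lysates, CJ and AJ isoforms quantified; housekeeping normalization GAPDH/GUSB (K562) or PPIA (A673). Cells: A673 in DMEM/10% FBS or K562 in IMDM/10% FBS. Compounds 11-pt 3-fold, top 10 uM, 24 h, 37 °C, 5% CO2.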

As for `Cc1cn2cc(NC(=O)c3ccc(N4CC[C@@H](NC56CC(C5)C6)C4)c4cn(C)nc34)cc(F)c2n1` [Compound 568, 4-[(3R)-3-{bicyclo[1.1.1]pentan-1-ylamino}pyrrolidin-1-yl]-N-{8-fluoro-2-methylimidazo[1,2-a]pyridin-6-yl}-2-methylindazole-7-carboxamide], the negative-log IC50 (pIC50) in the assay on Target C and in the assay on HTT mRNA was 5.00 to 6.00 throughout. Moreover, the AC50 with HTT mRNA was 1 to 10 µM.
For the compound `CCn1cc2c(N3CCC(NC4CC4)C3)cc(F)c(C(=O)Nc3cc(F)c4nc(C)cn4c3)c2n1` (stereo not drawn) [Compound 569, 4-[3-(cyclopropylamino)pyrrolidin-1-yl]-2-ethyl-6-fluoro-N-{8-fluoro-2-methylimidazo[1,2-a]pyridin-6-yl}indazole-7-carboxamide], the pIC50 in the assay with Target C is 5.00 to 6.00. For the same compound, in the assay on HTT mRNA, the pIC50 was under 5.00 and the AC50 was in the range of 1 to 10 µM.
With `Cc1cn2cc(NC(=O)c3c(F)cc(N4CC[C@@H](NC5CC5)C4)c4cn(C)nc34)cc(F)c2n1` [Compound 571, 4-[(3R)-3-(cyclopropylamino)pyrrolidin-1-yl]-6-fluoro-N-{8-fluoro-2-methylimidazo[1,2-a]pyridin-6-yl}-2-methylindazole-7-carboxamide], the negative logarithm of the IC50 (pIC50) in the assay with Target C was 5.00 to 6.00. In the assay on HTT mRNA, the negative-log IC50 (pIC50) is 6.00 to 7.00 and the AC50 was in the range of 0.1 to 1 µM.
In the same order, the values of `Cc1cn2cc(NC(=O)c3ccc(N4CC[C@@H](NCc5cnc(Cl)nc5)C4)c4cn(C)nc34)cc(F)c2n1` [Compound 573, 4-[(3R)-3-{[(2-chloropyrimidin-5-yl)methyl]amino}pyrrolidin-1-yl]-N-{8-fluoro-2-methylimidazo[1,2-a]pyridin-6-yl}-2-methylindazole-7-carboxamide] are under 5.00, under 5.00 and over 10 µM.
The compound `Cc1cn2cc(NC(=O)c3ccc(N4CCC(C)(NC(C)C)C4)c4cn(C)nc34)cc(F)c2n1` (stereo not drawn) [Compound 574] gave a negative-log IC50 (pIC50) with Target C of under 5.00. In addition, in the assay on HTT mRNA, the negative logarithm of the IC50 (pIC50) was under 5.00 and the concentration at half-maximal activity (AC50) is over 10 µM.
For the compound `CCn1cc2c(N3CCNCC3)ccc(C(=O)Nc3cc(F)c4ncccc4c3)c2n1` [Compound 575], the pIC50 in the assay on Target C and in the assay with HTT mRNA was under 5.00 in each case. In addition, the AC50 with HTT mRNA was over 10 µM.
